Results published in PMC10876669, “Substrate promiscuity of inositol 1,4,5-trisphosphate kinase driven by structurally-modified ligands and active site plasticity” (Nature Communications, 2024).
“And” between values parts separate entries of the source, which are not always exact repeats. Equal values may be shown once.

Legend:
[1] = target: T1, IP3K-KD (human IP3K-KD A isoform, residues 187–461) (Homo sapiens, UniProt P23677); test: Ligand displacement assay: fluorescence polarization (anisotropy) of 2-FITC-InsP3/IP3K-KD complex; assay type: binding
T1 construct: human IP3K-KD A isoform (residues 187–461); GST (cleaved yes); made in house; host or cells: Escherichia coli BL21 star (DE3)
Procedure: A construct encoding human IP3K-KD A isoform (residues 187–461) into pOPTG vector was used[16]. The protein was expressed in Escherichia coli BL21 star (DE3) strain. Cells were grown at 37 °C to OD600 = 1.0 then induced with 0.4 mM IPTG for 18 h at 16 °C. Protein purification was performed by adapting the reported protocol. Cells were resuspended in buffer A (10 mM Tris pH 7.5 [4 °C], 200 mM NaCl and 2 mM DTT) and disrupted by sonication. Clarified cell lysate was diluted 1/4 in buffer B (10 mM Tris pH 7.5 [4 °C] and 2 mM DTT) and loaded into a 5 mL HiTrap heparin column (GE Healthcare) washed by buffer C (20 mM Tris pH 7.5, 50 mM NaCl and 2 mM DTT), and eluted with a 0.05 M–1 M salt gradient. The eluted sample was subsequently loaded on to a 5 mL glutathione–Sepharose HP column (GE Healthcare), washed with buffer A and eluted with reduced glutathione 10 mM (Sigma-Aldrich) in buffer A. The GST tag was cleaved with home-made TEV (tobacco etch virus) protease overnight at 4 °C, (1:40 TEV/protein mass ratio). After glutathione removal with a PD10 column, the cleaved protein was further purified using a 5 mL glutathione–Sepharose HP column (GE Healthcare) followed by gel filtration on a 16/600 Superdex200 (GE Healthcare) column equilibrated in buffer D (20 mM Tris pH 7.5 [4 °C], 0.05 M (NH4)2SO4 and 2 mM DTT). Protein samples were analyzed by SDS/PAGE, concentrated around 18 mg/mL and stored at −80 °C until use.
Binding of a competing/displacing ligand to protein is observed as a decrease in the polarization (anisotropy) of 2-FITC-InsP3. A comparison of the strength of binding of enzyme substrates, analogues and products to IP3K-KD was obtained by measurement of fluorescence polarization (here anisotropy) of 2-FITC-InsP3/IP3K-KD complex. Experimentally, 100 nM IP3K-KD was mixed with 2 nM 2-FITC-InsP3[37] in 20 mM HEPES pH 7.5, 1 mM EDTA and 50 mM KCl with the addition of displacing compounds over a range of 1 nM–50 μM. Assays were analyzed using a ClarioSTAR plate reader and IC50 values determined from fit of the data to a 4-parameter logistic as described. From IC50 values, we have estimated the Ki (Kd) values for the displacing ligands using the equation of Cheng and Prusoff:[69]1 Ki=IC50/1+L/Kd where [L] is the ligand (2-FITC-InsP3) concentration and Kd the dissociation constant for its interaction with IP3K-KD. […] Consequently, the Ki values for the displacing ligands differ trivially from their IC50 values.

[2] = target: T1, IP3K-KD (human IP3K-KD A isoform, residues 187–461); test: Fluorescence thermal shift analysis (Tycho NT.6, inflection temperature Ti); assay type: binding
[3] = tested on: permeabilized rat hepatocytes; design: method as in PMID 11405648; details: cited from earlier work
IP3K-KD = target: T2, IP3K-KD (Homo sapiens, UniProt P23677); test: Direct binding of 2-FITC-InsP3 to IP3K-KD, one-site binding model; details: GraphPad Prism
T2 construct: human IP3K-KD A isoform (residues 187–461); GST (cleaved yes); made in house; host or cells: Escherichia coli BL21 star (DE3)

[4] = 10 μM IP3K-KD, 100 μM chiral or 200 μM racemic ligand, AMP-PNP or ADP, 100 μM MgCl2, mean ± SD, n=3
[5] = source data of Fig. 6b/6c, single replicates

T1 sequence (P23677 187-461): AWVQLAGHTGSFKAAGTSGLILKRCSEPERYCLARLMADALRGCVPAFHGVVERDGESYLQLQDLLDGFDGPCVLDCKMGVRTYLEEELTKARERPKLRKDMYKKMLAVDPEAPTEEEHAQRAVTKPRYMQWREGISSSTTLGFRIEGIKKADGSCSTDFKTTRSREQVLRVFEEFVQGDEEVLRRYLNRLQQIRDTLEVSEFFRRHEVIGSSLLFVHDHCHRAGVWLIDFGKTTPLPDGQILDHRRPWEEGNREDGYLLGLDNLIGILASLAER
T2 sequence (P23677 187-461): as above

Row | SMILES | IC50 ([1]; 100 nM IP3K-KD, 2 nM 2-FITC-InsP3, 20 mM HEPES pH 7.5, 1 mM EDTA, 50 mM KCl, n=4 replicates, 5-s and 5-p racemic, read-out: IC50, displacement of 2-FITC-InsP3 from IP3K-KD) | Quality as IP3K ligand (in words) ([1]; Fig. 6) | Kd ([1]; estimated Ki (Kd) from IC50 with [2-FITC-InsP3] 2 nM and its Kd 68 nM, read-out: Kd inferred from IC50 (Cheng and Prusoff)) | Ti, transition 1 (mean inflection temperature) [2, 4] | Ti, transition 2 (mean inflection temperature) [2, 4] | ΔTi, transition 1 ([2]; Ti minus Ti of apo IP3K-KD (44.4), mean ± SD, n=3) | ΔTi, transition 2 ([2]; Ti minus Ti of apo IP3K-KD (53.8), mean ± SD, n=3) | Transition 1 Ti, individual measurement [2, 5] | Transition 2 Ti, individual measurement [2, 5] | Transition 1 Dti (Ti-Ti Apo) ([2]; source data of Fig. 6c, N 3) | Transition 1 Ti Mean ([2]; source data of Fig. 6c, N 3) | Transition 2 DTi (Ti-Ti Apo) ([2]; source data of Fig. 6c, N 3) | Transition 2 Ti Mean ([2]; source data of Fig. 6c, N 3) | Ability to stimulate cellular Ca2+ release [3] | Kd (IP3K-KD)
1 | O=P(O)(O)OCC1C(O)C(OP(=O)(O)O)C(O)C(OP(=O)(O)O)C1OP(=O)(O)O (racemic) [5-p, DL-6-deoxy-6-phosphoryloxymethyl-scyllo-inositol 1,2,4-trisphosphate] | 875 nM | maintains quite good binding to IP3K | 850 nM | 52.1 ± 0.1 ºC | 57.6 ± 0.1 ºC | 7.7 ± 0.3 ºC | 3.8 ± 0.2 ºC | 52.2 and 52.1 and 52.0 | 57.6 (2×) and 57.7 | 7.7 | 52.1 | 3.8 | 57.6 | abolishes the ability to stimulate cellular Ca^2+ release | –
2 | O=C(O)c1cc(NC(=S)NCCO[C@@H]2[C@H](O)[C@@H](OP(=O)(O)O)[C@H](OP(=O)(O)O)[C@@H](O)[C@@H]2OP(=O)(O)O)ccc1-c1c2ccc(=O)cc-2oc2cc(O)ccc12 [2-FITC-InsP3] | – | – | – | – | – | – | – | – | – | – | – | – | – | – | 68 nM
